From ChEMBL document CHEMBL1201862, “PubChem BioAssay data set” (2004)
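All cell lines were grown in 96-well plates and treated with compound for 48 hours. GI50: concentration for 50% inhibition of growth.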 The source made the active and inactive calls. No stated cut-off is given here; in the data, active = GI50 up to about 1.1 µM and inactive = higher.

Columns and labels:
Experiment in all cases: NCI tumour cell line growth inhibition, 48 h
XF498 = tested on: XF498
M14 = tested on: M14
IGROV-1 = tested on: IGROV-1
OVCAR-8 = tested on: OVCAR-8
SF-539 = tested on: SF-539
KM-20L2 = tested on: KM-20L2
SNB-78 = tested on: SNB-78
DMS-273 = tested on: DMS-273
DMS-114 = tested on: DMS-114
TK-10 = tested on: TK-10
NCI-H23 = tested on: NCI-H23
SK-MEL-2 = tested on: SK-MEL-2
M19-MEL = tested on: M19-MEL
NCI/ADR-RES = tested on: NCI/ADR-RES
HOP-18 = tested on: HOP-18
PC-3 = tested on: PC-3
DU-145 = tested on: DU-145
T47D = tested on: T47D
Hs-578T = tested on: Hs-578T
MDA-MB-231 = tested on: MDA-MB-231

| Compound | GI50 (XF498) | GI50 (M14) | GI50 (IGROV-1) | GI50 (OVCAR-8) | GI50 (SF-539) | GI50 (KM-20L2) | GI50 (SNB-78) | GI50 (DMS-273) | GI50 (DMS-114) | GI50 (TK-10) | GI50 (NCI-H23) | GI50 (SK-MEL-2) | GI50 (M19-MEL) | GI50 (NCI/ADR-RES) | GI50 (HOP-18) | GI50 (PC-3) | GI50 (DU-145) | GI50 (T47D) | GI50 (Hs-578T) | GI50 (MDA-MB-231) |
| --- | --- | --- | --- | --- | --- | --- | --- | --- | --- | --- | --- | --- | --- | --- | --- | --- | --- | --- | --- | --- |
| CC(=O)c1c(P(=O)(OC(C)C)OC(C)C)nn(-c2ccc([N+](=O)[O-])cc2)c1C | > 100 µM (inactive) | > 100 µM (inactive) | > 100 µM (inactive) | > 100 µM (inactive) | > 100 µM (inactive) | > 100 µM (inactive) | > 100 µM (inactive) | > 100 µM (inactive) | > 100 µM (inactive) | > 100 µM (inactive) | > 100 µM (inactive) | > 100 µM (inactive) | > 100 µM (inactive) | – | – | – | – | – | – | – |
| O=C1c2cccc3cc4ccccc4c(c23)C(=O)N1CCNCCNCCNCCN1C(=O)c2cccc3cc4ccccc4c(c23)C1=O | 0.0131 µM (active) | – | < 0.01 µM (active) | < 0.01 µM (active) | 0.0243 µM (active) | < 0.0139 µM (active) | < 0.01 µM (active) | < 0.01 µM (active) | 0.0114 µM (active) | – | < 0.01 µM (active) | 0.119 µM (active) | < 0.01 µM (active) | < 0.0136 µM (active) | 0.0405 µM (active) | – | – | – | – | – |
| NC(CCP(=O)(O)CCC1C=CC=CC1)C(=O)O (configuration not stated) | – | > 100 µM (inactive) | > 100 µM (inactive) | > 100 µM (inactive) | 56.8 µM (inactive) | – | – | – | – | > 100 µM (inactive) | > 100 µM (inactive) | > 100 µM (inactive) | – | > 100 µM (inactive) | – | > 100 µM (inactive) | > 100 µM (inactive) | > 100 µM (inactive) | > 100 µM (inactive) | > 100 µM (inactive) |
| Cc1cccc2nc3cccc(C(=O)NCCN(C)C)c3nc12 | – | 0.766 µM (active) | 0.525 µM (active) | 0.673 µM (active) | 0.292 µM (active) | – | 0.802 µM (active) | 0.42 µM (active) | 1.06 µM (active) | 0.433 µM (active) | 0.541 µM (active) | 1.27 µM (inactive) | 0.675 µM (active) | – | 2.4 µM (inactive) | – | – | – | – | – |
| Cc1sc2nc3n(c(=O)c2c1C)N=C(c1ccc([N+](=O)[O-])cc1)CS3 | – | – | – | > 100 µM (inactive) | > 100 µM (inactive) | – | – | – | – | – | > 100 µM (inactive) | – | – | > 100 µM (inactive) | – | > 100 µM (inactive) | > 100 µM (inactive) | > 100 µM (inactive) | 97.5 µM (inactive) | > 100 µM (inactive) |
| CSc1nc(NC2OC(CO)C(O)C(O)C2O)c(N)c(=O)[nH]1 (configuration not stated) | > 100 µM (inactive) | – | > 100 µM (inactive) | > 100 µM (inactive) | > 100 µM (inactive) | > 100 µM (inactive) | > 100 µM (inactive) | > 100 µM (inactive) | > 100 µM (inactive) | – | > 100 µM (inactive) | > 100 µM (inactive) | > 100 µM (inactive) | > 100 µM (inactive) | > 100 µM (inactive) | – | – | – | – | – |
| COc1ccc2c(c1O)-c1cc(O)cc3c1[C@@H](C2)N(C)CC3 | 93.8 µM (inactive) | – | 72.8 µM (inactive) | 8.79 µM (inactive) | 81.1 µM (inactive) | 2.84 µM (inactive) | 83 µM (inactive) | 65.8 µM (inactive) | – | – | 96.8 µM (inactive) | 27.5 µM (inactive) | 67.8 µM (inactive) | 75.9 µM (inactive) | 67.3 µM (inactive) | – | – | – | – | – |
| Cc1ccc(C)c(C(=O)CC2OC(O)C(Cl)C2Cl)c1 (configuration not stated) | > 100 µM (inactive) | > 100 µM (inactive) | > 100 µM (inactive) | 18.3 µM (inactive) | 24 µM (inactive) | > 100 µM (inactive) | 60.1 µM (inactive) | 63.1 µM (inactive) | > 100 µM (inactive) | > 100 µM (inactive) | > 100 µM (inactive) | 84.5 µM (inactive) | 72.3 µM (inactive) | – | > 100 µM (inactive) | – | – | – | – | – |
| CC(=O)Oc1cc2c(cc1OC(C)=O)OCC(c1ccccc1)C2 (configuration not stated) | 12.4 µM (inactive) | – | 33.8 µM (inactive) | 16.9 µM (inactive) | 25.7 µM (inactive) | 34.7 µM (inactive) | 39.2 µM (inactive) | 34.2 µM (inactive) | 6.81 µM (inactive) | – | 32.2 µM (inactive) | 27.4 µM (inactive) | 14.9 µM (inactive) | 31.3 µM (inactive) | 29.9 µM (inactive) | – | – | – | – | – |
| O=C(c1ccccc1)c1ccc2n[se]nc2c1 | – | 19.1 µM (inactive) | 50.6 µM (inactive) | 73.5 µM (inactive) | 17.9 µM (inactive) | 31.4 µM (inactive) | > 100 µM (inactive) | 10.3 µM (inactive) | 12.4 µM (inactive) | > 100 µM (inactive) | 62.5 µM (inactive) | > 100 µM (inactive) | – | – | < 0.01 µM (active) | – | – | – | – | – |
| Nc1cccc2c1C1=NNC(=O)CC1C2 (configuration not stated) | > 100 µM (inactive) | – | > 100 µM (inactive) | > 100 µM (inactive) | > 100 µM (inactive) | > 100 µM (inactive) | > 100 µM (inactive) | > 100 µM (inactive) | > 100 µM (inactive) | – | – | > 100 µM (inactive) | > 100 µM (inactive) | > 100 µM (inactive) | – | – | – | – | – | – |
| Cn1c(=O)[nH]c2nncnc2c1=O | 54.2 µM (inactive) | – | 29.2 µM (inactive) | 19.8 µM (inactive) | 64.9 µM (inactive) | 55.2 µM (inactive) | 151 µM (inactive) | 21.6 µM (inactive) | 126 µM (inactive) | – | 179 µM (inactive) | 120 µM (inactive) | 43.7 µM (inactive) | 217 µM (inactive) | 13.5 µM (inactive) | – | – | – | – | – |
| N=C(CSS(=O)(=O)O)NC1CC2CCC1C2 (configuration not stated) | – | > 100 µM (inactive) | > 100 µM (inactive) | > 100 µM (inactive) | > 100 µM (inactive) | – | – | – | – | > 100 µM (inactive) | > 100 µM (inactive) | > 100 µM (inactive) | – | > 100 µM (inactive) | – | > 100 µM (inactive) | > 100 µM (inactive) | 71.8 µM (inactive) | > 100 µM (inactive) | > 100 µM (inactive) |
| CC(=O)OC/C=C/Cn1ncc(=O)[nH]c1=O | – | > 100 µM (inactive) | > 100 µM (inactive) | > 100 µM (inactive) | > 100 µM (inactive) | – | – | – | – | – | > 10 µM (inactive) | > 100 µM (inactive) | – | > 100 µM (inactive) | – | > 100 µM (inactive) | > 100 µM (inactive) | > 100 µM (inactive) | > 100 µM (inactive) | > 100 µM (inactive) |
| N/N=C1\C(OC(=O)Nc2cccc(Cl)c2)=Nc2ccccc21 | – | 7.01 µM (inactive) | 8.15 µM (inactive) | 7.31 µM (inactive) | 17.1 µM (inactive) | – | – | – | – | 12.1 µM (inactive) | 5.07 µM (inactive) | 10.3 µM (inactive) | – | 6.4 µM (inactive) | – | 4.98 µM (inactive) | 8.39 µM (inactive) | 2.45 µM (inactive) | 16.1 µM (inactive) | 12.1 µM (inactive) |
| CSc1nc(CO)c(CO)n1C | > 100 µM (inactive) | – | > 100 µM (inactive) | > 100 µM (inactive) | > 100 µM (inactive) | > 100 µM (inactive) | > 100 µM (inactive) | > 100 µM (inactive) | > 100 µM (inactive) | – | > 100 µM (inactive) | > 100 µM (inactive) | > 100 µM (inactive) | > 100 µM (inactive) | > 100 µM (inactive) | – | – | – | – | – |
| CCOC(=O)CCC(NC(=O)OCc1ccccc1)C(=O)NC(CCC(=O)OCC)C(=O)NNC(=O)OC(C)(C)C (configuration not stated) | – | > 100 µM (inactive) | > 100 µM (inactive) | > 100 µM (inactive) | – | – | – | – | – | – | > 100 µM (inactive) | > 100 µM (inactive) | – | > 100 µM (inactive) | – | 38.8 µM (inactive) | > 100 µM (inactive) | > 100 µM (inactive) | > 100 µM (inactive) | – |
| O=C(Nc1ccccc1F)c1c(O)nc2sccn2c1=O | – | > 10 µM (inactive) | > 10 µM (inactive) | > 10 µM (inactive) | > 10 µM (inactive) | – | – | – | – | > 10 µM (inactive) | > 10 µM (inactive) | > 10 µM (inactive) | – | > 10 µM (inactive) | – | > 10 µM (inactive) | > 10 µM (inactive) | > 10 µM (inactive) | > 10 µM (inactive) | > 10 µM (inactive) |
